# Test results taken from the NIST ThermoML archive (doi:10.1016/j.jct.2008.02.020).
# ± gives the expanded uncertainty stated by the source.
# Conditions: Liquid, Buoyancy - hydrostatic balance with magnetic suspension - one sinker
smiles,measurement,setting,value
"Cc1ccc(Cl)cc1Cl [1,3-dichloro-4-methylbenzene]",mass density,"263.15 K, 97.86 kPa",1280.75 ± 1.5 kg/m3
same,mass density,"263.15 K, 1123.9 kPa",1281.41 ± 1.5 kg/m3
same,mass density,"263.15 K, 2150.1 kPa",1282.08 ± 1.5 kg/m3
same,mass density,"263.15 K, 3971.8 kPa",1283.26 ± 1.5 kg/m3
same,mass density,"263.15 K, 6167.5 kPa",1284.65 ± 1.5 kg/m3
same,mass density,"263.15 K, 7898.5 kPa",1285.75 ± 1.5 kg/m3
same,mass density,"263.15 K, 9974.7 kPa",1287.06 ± 1.5 kg/m3
same,mass density,"273.15 K, 101.87 kPa",1270.26 ± 1.5 kg/m3
same,mass density,"273.15 K, 1168.7 kPa",1270.98 ± 1.5 kg/m3
same,mass density,"273.15 K, 2038.5 kPa",1271.57 ± 1.5 kg/m3
same,mass density,"273.15 K, 4184.1 kPa",1273.02 ± 1.5 kg/m3
same,mass density,"273.15 K, 5901.9 kPa",1274.17 ± 1.5 kg/m3
same,mass density,"273.15 K, 7917 kPa",1275.5 ± 1.5 kg/m3
same,mass density,"273.15 K, 10080 kPa",1276.92 ± 1.5 kg/m3
same,mass density,"273.15 K, 11859 kPa",1278.07 ± 1.5 kg/m3
same,mass density,"273.15 K, 14024 kPa",1279.46 ± 1.5 kg/m3
same,mass density,"273.15 K, 16108 kPa",1280.79 ± 1.5 kg/m3
same,mass density,"273.15 K, 17842 kPa",1281.88 ± 1.5 kg/m3
same,mass density,"273.15 K, 20076 kPa",1283.28 ± 1.5 kg/m3
same,mass density,"273.15 K, 22132 kPa",1284.55 ± 1.5 kg/m3
same,mass density,"273.15 K, 24150 kPa",1285.79 ± 1.5 kg/m3
same,mass density,"273.15 K, 26076 kPa",1286.95 ± 1.5 kg/m3
same,mass density,"273.15 K, 27913 kPa",1288.06 ± 1.5 kg/m3
same,mass density,"273.15 K, 29994 kPa",1289.3 ± 1.5 kg/m3
same,mass density,"293.15 K, 97.54 kPa",1249.31 ± 1.4 kg/m3
same,mass density,"293.16 K, 1126.7 kPa",1250.08 ± 1.4 kg/m3
same,mass density,"293.17 K, 1886.8 kPa",1250.65 ± 1.4 kg/m3
same,mass density,"293.18 K, 4191.9 kPa",1252.36 ± 1.4 kg/m3
same,mass density,"293.19 K, 6062.4 kPa",1253.73 ± 1.4 kg/m3
same,mass density,"293.2 K, 7970.1 kPa",1255.11 ± 1.4 kg/m3
same,mass density,"293.21 K, 10165 kPa",1256.68 ± 1.4 kg/m3
same,mass density,"293.22 K, 12144 kPa",1258.09 ± 1.4 kg/m3
same,mass density,"293.23 K, 14101 kPa",1259.46 ± 1.4 kg/m3
same,mass density,"293.24 K, 16101 kPa",1260.85 ± 1.4 kg/m3
same,mass density,"293.25 K, 18110 kPa",1262.23 ± 1.4 kg/m3
same,mass density,"293.26 K, 20077 kPa",1263.55 ± 1.4 kg/m3
same,mass density,"293.27 K, 22136 kPa",1264.94 ± 1.4 kg/m3
same,mass density,"293.28 K, 24103 kPa",1266.25 ± 1.4 kg/m3
same,mass density,"293.29 K, 25962 kPa",1267.48 ± 1.4 kg/m3
same,mass density,"293.3 K, 27896 kPa",1268.74 ± 1.4 kg/m3
same,mass density,"293.31 K, 29829 kPa",1270 ± 1.5 kg/m3
same,mass density,"313.15 K, 107.85 kPa",1228.39 ± 1.4 kg/m3
same,mass density,"313.15 K, 1095.7 kPa",1229.21 ± 1.4 kg/m3
same,mass density,"313.15 K, 2082.7 kPa",1230.02 ± 1.4 kg/m3
same,mass density,"313.15 K, 4107.2 kPa",1231.67 ± 1.4 kg/m3
same,mass density,"313.15 K, 5854.6 kPa",1233.08 ± 1.4 kg/m3
same,mass density,"313.15 K, 8123.1 kPa",1234.89 ± 1.4 kg/m3
same,mass density,"313.15 K, 10162 kPa",1236.49 ± 1.4 kg/m3
same,mass density,"313.15 K, 12124 kPa",1238.01 ± 1.4 kg/m3
same,mass density,"313.15 K, 13892 kPa",1239.36 ± 1.4 kg/m3
same,mass density,"313.15 K, 16106 kPa",1241.04 ± 1.4 kg/m3
same,mass density,"313.15 K, 18086 kPa",1242.52 ± 1.4 kg/m3
same,mass density,"313.15 K, 20144 kPa",1244.04 ± 1.4 kg/m3
same,mass density,"313.15 K, 22020 kPa",1245.42 ± 1.4 kg/m3
same,mass density,"313.15 K, 24014 kPa",1246.86 ± 1.4 kg/m3
same,mass density,"313.15 K, 25938 kPa",1248.23 ± 1.4 kg/m3
same,mass density,"313.15 K, 27776 kPa",1249.54 ± 1.4 kg/m3
same,mass density,"313.15 K, 29828 kPa",1250.98 ± 1.4 kg/m3
same,mass density,"333.15 K, 101.71 kPa",1207.38 ± 1.3 kg/m3
same,mass density,"333.15 K, 1081.7 kPa",1208.28 ± 1.3 kg/m3
same,mass density,"333.15 K, 1877.8 kPa",1209 ± 1.3 kg/m3
same,mass density,"333.15 K, 3933.1 kPa",1210.85 ± 1.3 kg/m3
same,mass density,"333.15 K, 5993.1 kPa",1212.68 ± 1.3 kg/m3
same,mass density,"333.15 K, 8164.3 kPa",1214.58 ± 1.3 kg/m3
same,mass density,"333.15 K, 10140 kPa",1216.29 ± 1.3 kg/m3
same,mass density,"333.15 K, 12129 kPa",1217.98 ± 1.3 kg/m3
same,mass density,"333.15 K, 14157 kPa",1219.68 ± 1.3 kg/m3
same,mass density,"333.15 K, 16129 kPa",1221.31 ± 1.3 kg/m3
same,mass density,"333.15 K, 18148 kPa",1222.96 ± 1.4 kg/m3
same,mass density,"333.15 K, 20046 kPa",1224.49 ± 1.4 kg/m3
same,mass density,"333.15 K, 22094 kPa",1226.12 ± 1.4 kg/m3
same,mass density,"333.15 K, 24026 kPa",1227.64 ± 1.4 kg/m3
same,mass density,"333.15 K, 25826 kPa",1229.04 ± 1.4 kg/m3
same,mass density,"333.15 K, 27856 kPa",1230.61 ± 1.4 kg/m3
same,mass density,"333.15 K, 29702 kPa",1232.01 ± 1.4 kg/m3
same,mass density,"353.15 K, 101.05 kPa",1186.2 ± 1.3 kg/m3
same,mass density,"353.15 K, 1224 kPa",1187.34 ± 1.3 kg/m3
same,mass density,"353.15 K, 2054.2 kPa",1188.18 ± 1.3 kg/m3
same,mass density,"353.15 K, 4178 kPa",1190.3 ± 1.3 kg/m3
same,mass density,"353.15 K, 6020.6 kPa",1192.11 ± 1.3 kg/m3
same,mass density,"353.15 K, 8131.5 kPa",1194.14 ± 1.3 kg/m3
same,mass density,"353.15 K, 10113 kPa",1196.02 ± 1.3 kg/m3
same,mass density,"353.15 K, 12081 kPa",1197.87 ± 1.3 kg/m3
same,mass density,"353.15 K, 14118 kPa",1199.74 ± 1.3 kg/m3
same,mass density,"353.15 K, 16085 kPa",1201.53 ± 1.3 kg/m3
same,mass density,"353.15 K, 18058 kPa",1203.29 ± 1.3 kg/m3
same,mass density,"353.15 K, 19980 kPa",1204.98 ± 1.3 kg/m3
same,mass density,"353.15 K, 22046 kPa",1206.78 ± 1.3 kg/m3
same,mass density,"353.15 K, 24056 kPa",1208.5 ± 1.3 kg/m3
same,mass density,"353.15 K, 26025 kPa",1210.17 ± 1.3 kg/m3
same,mass density,"353.15 K, 27872 kPa",1211.71 ± 1.3 kg/m3
same,mass density,"353.15 K, 29804 kPa",1213.32 ± 1.3 kg/m3
same,mass density,"373.15 K, 99.43 kPa",1164.78 ± 1.2 kg/m3
same,mass density,"373.15 K, 1084.4 kPa",1165.89 ± 1.2 kg/m3
same,mass density,"373.15 K, 1956.5 kPa",1166.87 ± 1.2 kg/m3
